Measurements published in US10131663B2, “Chemical compounds” (AstraZeneca AB, priority 2016, dated 2018).
In brackets after ≈: the same amount, converted by molar mass.

Experiments:
[1] = target: recombinant human Estrogen Receptor alpha ligand binding domain (ER alpha-LBD (GST)) (Homo sapiens (Human), UniProt P03372); assay: ERα binding assay (LanthaScreen TR-FRET competition); settings: TR-FRET, displacement of Fluormone ES2
How it was run: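 Competition binding to GST-tagged human ERα ligand-binding domain, read by LanthaScreen TR-FRET: Tb-anti-GST antibody labels the receptor and compounds displace a fluorescent tracer, lowering the signal. IC50 was taken from dose-response curve fitting.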

[2] = target: T1, Estrogen Receptor (ERα) in MCF-7 cells (Homo sapiens (Human), UniProt P03372); assay: MCF-7 ER down-regulation assay (immuno-fluorescence); assay type: cell-based
How it was run: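 Compounds dispensed acoustically from DMSO stocks onto MCF-7 cells; cells fixed 20 min at room temperature, then automated immunostaining for ERα with overnight incubation at 4° C. Read-out is mean total ER fluorescence intensity normalized to cell number (intensity per cell), with curve fitting for concentration-response values.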

[3] = target: estrogen receptor (ERα) in CAMA-1 cells (Homo sapiens (Human), UniProt P03372); assay: Western blotting assay, ER down-regulation in CAMA-1; assay type: cell-based; settings: 100 nM compound, 48 h, normalised to 100 nM fulvestrant
How it was run: (§1)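 Cells treated with compounds at 100 nM or 0.1% DMSO vehicle for 48 h at 37 °C, then lysed; ERα detected by western blot with anti-ERα (SP1) rabbit monoclonal. Down-regulation normalised to vehicle (0%) and 100 nM fulvestrant (100%) run on the same gel.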

[4] = target: T1, Estrogen Receptor (ERα) in MCF-7 cells; assay: Western blotting assay, ER down-regulation in MCF-7; assay type: cell-based; settings: 100 nM compound, 48 h, normalised to 100 nM fulvestrant
How it was run: as §1

[5] = Thermodynamic solubility (shake-flask); assay type: physicochemical; settings: aqueous phosphate buffer, 25 °C, pH 7.4, aqueous buffer, thermodynamic from solid, aqueous phosphate buffer pH 7.4, 24 hours
How it was run: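 Shake-flask method starting from 10 mM DMSO stocks, which are dried before use. Residue equilibrated 24 h at 25° C. in aqueous phosphate buffer, pH 7.4. Dissolved fraction separated and quantified by UPLC/MS/MS, with QC samples in each run.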

[6] = Human plasma protein binding (equilibrium dialysis); assay type: in vitro ADME; settings: dialysis 18 hours
How it was run: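 Fraction unbound (fu %) in human plasma, from LC/MSMS of plasma and buffer sides (7-point plasma calibration) after 18 h rapid equilibrium dialysis. Single determinations, with compounds pooled up to 10 per plasma pool.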

T1 sequence (P03372 whole entry): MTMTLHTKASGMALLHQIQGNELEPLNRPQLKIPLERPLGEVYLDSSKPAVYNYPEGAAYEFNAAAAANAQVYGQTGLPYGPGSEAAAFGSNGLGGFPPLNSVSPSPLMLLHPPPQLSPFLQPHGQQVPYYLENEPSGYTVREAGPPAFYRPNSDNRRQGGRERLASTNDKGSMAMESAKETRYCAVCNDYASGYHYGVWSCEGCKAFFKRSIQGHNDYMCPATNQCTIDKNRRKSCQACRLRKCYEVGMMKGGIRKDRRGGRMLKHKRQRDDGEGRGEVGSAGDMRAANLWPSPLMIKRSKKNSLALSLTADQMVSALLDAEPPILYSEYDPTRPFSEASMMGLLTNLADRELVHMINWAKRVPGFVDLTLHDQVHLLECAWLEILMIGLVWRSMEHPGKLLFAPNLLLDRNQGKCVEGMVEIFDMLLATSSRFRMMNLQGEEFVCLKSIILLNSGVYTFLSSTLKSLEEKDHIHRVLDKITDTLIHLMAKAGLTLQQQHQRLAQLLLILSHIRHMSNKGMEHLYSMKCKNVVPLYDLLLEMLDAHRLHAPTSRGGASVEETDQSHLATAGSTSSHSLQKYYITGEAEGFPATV
estrogen receptor (ERα) in CAMA-1 cells, sequence (P03372 whole entry): as above
recombinant human Estrogen Receptor alpha ligand binding domain (ER alpha-LBD (GST)), sequence (P03372 307-554): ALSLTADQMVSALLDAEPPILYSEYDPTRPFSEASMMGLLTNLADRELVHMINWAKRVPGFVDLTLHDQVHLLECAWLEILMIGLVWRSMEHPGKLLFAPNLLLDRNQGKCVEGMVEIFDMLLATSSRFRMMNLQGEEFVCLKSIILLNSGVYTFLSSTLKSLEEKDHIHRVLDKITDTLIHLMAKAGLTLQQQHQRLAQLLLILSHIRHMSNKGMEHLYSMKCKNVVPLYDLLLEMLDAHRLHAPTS

Row | Structure (SMILES) | IC50 [1] [nM] | IC50 [2] [nM] | CAMA1 Western % ER deg vs Fv [3] [%] | MCF7 Western % ER deg vs Fv [4] [%] | solubility at 24 h [5] [µM] | Human plasma protein binding (% free) [6] [% free]
1 | C[C@@H]1Cc2c(ccc3[nH]ncc23)[C@@H](c2ccc(NC3CN(CCCF)C3)cc2)N1CC(F)F [Example 48, N-(4-((6R,8R)-7-(2,2-difluoroethyl)-8-methyl-6,7,8,9-tetrahydro-3H-pyrazolo[4,3-f]isoquinolin-6-yl)phenyl)-1-(3-fluoropropyl)azetidin-3-amine] | 1.5 | 0.078 | 94 | 93 | 582 (≈ 266 µg/mL) | 10
2 | COc1cc(NC2CN(CCCF)C2)ccc1[C@@H]1c2ccc3[nH]ncc3c2C[C@@H](C)N1CC(C)(C)F [Example 64, N-(4-((6S,8R)-7-(2-fluoro-2-methylpropyl)-8-methyl-6,7,8,9-tetrahydro-3H-pyrazolo[4,3-f]isoquinolin-6-yl)-3-methoxyphenyl)-1-(3-fluoropropyl)azetidin-3-amine] | 6.1 | 0.22 | 89 | 86 | 474 (≈ 236 µg/mL) | 14
